Consider 3 molecules from paper PMC3445653 (Neuropharmacology, 2012).

“Also recorded” adds a separate entry of the source. Read-outs that look alike come from different tables or passages of the source.

The target of series [1] is T1, PKMζ (Homo sapiens, UniProt Q05513).
T1 sequence (Q05513 1-409 isoform Q05513-2): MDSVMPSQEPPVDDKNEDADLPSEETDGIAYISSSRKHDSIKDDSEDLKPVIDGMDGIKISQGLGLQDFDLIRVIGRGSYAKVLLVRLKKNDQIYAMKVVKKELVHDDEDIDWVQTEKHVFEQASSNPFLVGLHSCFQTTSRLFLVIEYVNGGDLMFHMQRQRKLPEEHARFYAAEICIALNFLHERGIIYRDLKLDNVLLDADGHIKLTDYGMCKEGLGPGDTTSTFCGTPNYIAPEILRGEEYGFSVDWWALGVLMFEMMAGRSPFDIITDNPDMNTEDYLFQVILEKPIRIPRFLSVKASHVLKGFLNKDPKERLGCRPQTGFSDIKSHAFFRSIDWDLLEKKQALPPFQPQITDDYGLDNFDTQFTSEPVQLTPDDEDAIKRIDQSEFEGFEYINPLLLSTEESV
Description: PKMζ phosphorylation assay, PKCε substrate. The class given is biochemical.

The test system of a further series is PKMζ-RFP fusion protein. Conditions: ref Wu-Zhang et al., 2012, cited from earlier work.
Series [2] deals with T1, PKMζ. Conditions: ref Ling et al., 2002; cited from earlier work.
The test system of the next series is catalytic domain of PKC. As to conditions: ref Herbert et al., 1990, cited from earlier work.
The test system of series [3] is baseline fEPSPs in hippocampal slices. Description: Baseline fEPSP in hippocampal slices. In kind it is cell-based, Sprague Dawley rats. As to conditions: 100 nM; p = 0.8 between 10 and 60 min; n = 4.
The subject of series [4] is PDK1 phosphorylation of N-terminally tagged, eGFP-PKMζ overexpressed in 293T cells. The series is described as follows: Activation loop phosphorylation of eGFP-PKMζ overexpressed in 293T cells. In kind it is cell-based. Conditions: 100 nM for 4 hr; A. Tcherepanov and T. C. Sacktor, unpublished data.
The next series has as its system LTP induction. Conditions: 100 nM; hippocampal slices; ref Ling et al., 2002; cited from earlier work.
In series [5] the test system is PDK1 phosphorylation of PKMζ (T410). Description: Activation loop. As to conditions: 100 nM for 4 hr, control vs staurosporine p = 0.9, n = 5. The class given is cell-based, Sprague Dawley rats.
In another series the test system is LTP maintenance. Conditions: cited from earlier work.
Series [6] relates to baseline postsynaptic AMPAR responses in CA1 pyramidal cells of hippocampal slices. Description: Baseline postsynaptic AMPAR-mediated EPSCs. The class given is cell-based, Sprague Dawley rats. Conditions: 5 μM scrambled ZIP; p = 0.6, 1 min before application vs 15 min after; n = 4.

Turning to `COc1ccc2c(c[n+](C)c3c4cc5c(cc4ccc23)OCO5)c1OC` [chelerythrine], the “inhibition of PKMζ, 10 μM DTT” value against PKMζ [1] (DTT 10 μM, PKMζ 5 nM, 25 μM PKCε substrate, n = 4) is listed as “effective”. Moreover, at PKMζ [1] (DTT 1 mM, PKMζ 5 nM, 25 μM PKCε substrate, n = 4), the “inhibition of PKMζ, 1 mM DTT” value was “much less effective”. Besides, the “sensitivity to redox state” value at PKMζ [1] (high levels of dithiothreitol (DTT), PKMζ 5 nM) is reported as “redox-sensitive inhibitor of PKMζ; also recorded: sensitive to redox state”. Moreover, the “inhibition of PKMζ fusion protein in transfected cultured cells” value in the series with PKMζ-RFP fusion protein is “did not inhibit”. Also, the “inhibition of PKM forms” value on PKMζ [2] is on record as “highly effective on PKM forms; also recorded: particularly effective on PKM forms”. Besides, the mode of inhibition entry with catalytic domain of PKC (inhibition of substrate binding) is recorded as “competitive inhibitors of substrate binding”. The “inhibition of catalytic domain of PKC” value in the series with catalytic domain of PKC (Thompson and Fields, 1996) is given as “inhibitor of the catalytic domain of PKC”.
With `CN[C@@H]1C[C@H]2O[C@@](C)([C@@H]1OC)n1c3ccccc3c3c4c(c5c6ccccc6n2c5c31)C(=O)NC4` [staurosporine], the “effect on baseline fEPSP” value in [3] is “no effect on baseline”. Further, in series [4], the “PDK1 phosphorylation of eGFP-PKMζ” value is on record as “no effect”. Moreover, the “effect on LTP induction” value in the series with LTP induction is recorded as “prevented LTP induction; also recorded: block LTP induction”. Moreover, the “phosphorylation state of the activation loop of PKMζ (T410P)” value was “no effect” in series [5] and “does not alter the phosphorylation state” in [5] (listed as Staurosporine). For the same molecule, the “effect on LTP maintenance” value in the series on LTP maintenance (100 nM, 4 hours, hippocampal slices, ref Ling et al., 2002) is on record as “does not reverse LTP maintenance; also recorded: but not LTP maintenance”. In the series with PKMζ-RFP fusion protein (cultured cells), the “activation loop phosphorylation of overexpressed PKMζ-RFP” value is reported as “reduce activation loop phosphorylation”.
On to myr-RLYRKRIWRSAGR-OH [scrambled ZIP], for which the “effect on baseline postsynaptic AMPAR responses” value in series [6] is “no effect”. For the same molecule, the “efficacy on inhibiting PKMζ biochemically in vitro relative to ZIP” value on PKMζ [1] (Fig. 4A, right, compared with ZIP) was “less effective”. In addition, the “inhibition of PKMζ at higher doses” value against PKMζ [1] (higher doses, Fig. 4A, right) is “will also inhibit PKMζ at higher doses”. In the series on LTP maintenance (dose equivalent to ZIP (5 μM), ref Serrano et al., 2005), the “effect on LTP maintenance” value is on record as “ineffective”.
